The results in this text go back to patent publication US20200237759A1, “DOSAGE REGIME AND METHOD FOR TREATING PULMONARY ARTERIAL HYPERTENSION” (Altavant Sciences GmbH, priority 2019, published 2020).

Molecules are shown by their SMILES.

The nature of the data set: Thermodynamic stability of crystalline forms. It is filed as physicochemical. As to conditions: compared to Form 1.

As to `CCOC(=O)[C@@H]1CC2(CCN(c3cc(O[C@H](c4ccc(Cl)cc4-c4ccccc4)C(F)(F)F)nc(N)n3)CC2)CN1` [Form 3, (S)-ethyl 8-(2-amino-6-((R)-1-(5-chloro-[1,1′-biphenyl]-2-yl)-2,2,2-trifluoroethoxy)pyrimidin-4-yl)-2,8-diazaspiro[4.5]decane-3-carboxylate], the thermodynamic stability entry was “substantially greater thermodynamic stability compared to Form 1”.
